The values below come from patent US9694073B2, “Small molecule inhibitors of polynucleotide kinase/phosphatase, poly(ADP-ribose) polymerase and uses thereof” (THE GOVERNORS OF THE UNIVERSITY OF ALBERTA, priority 2009, dated 2017).

Entries after “also recorded” stand apart in the source; their conditions may differ.

For data set [1], the target named is T1, human PNKP (hPNKP) 3'-phosphatase activity (Homo sapiens, UniProt Q96T60).
T1 construct: made in house; host or cells: bacteria (said only for the batch compared with aprataxin)
In words: Fluorescence quenching-based screening assay for PNKP 3'-phosphatase activity. The class given is biochemical. The settings on record: 100 μM compound, 50 ng hPNKP. The procedure:
The […] assay developed originally for protein kinases by QTL Biosystems (Santa Fe, N. Mex.) was modified. […] The TAMRA-labelled oligonucleotide lacking a 3'-phosphate served as a control. […] The assay was performed in 384-well white Optiplate microplates (PerkinElmer, Woodbridge, ON) in 70 mM Tris-HCl, pH 7.4, 60 mM MgCl2, 5 mM MnCl2, 0.3% BSA, 0.09% sodium azide. Reaction buffer was prepared by adding 1 mM DTT immediately prior to use. Five μL of 3'-phosphatase substrate (final concentration 0.5 μM) was used per well. In duplicate, 10 μl of each concentration of hPNKP was added per well. Plates were incubated for 1 hour at 37° C. and then 15 μl of 1× sensor solution (provided by QTL) was added to each well and incubated for 30 minutes at room temperature. Fluorescence (485 nm excitation and 520 nm emission wavelengths) of each well was read in a FLUOstar Optima® (BMG Labtech Inc, Durham, N.C.). Data were analyzed using GraphPad Prism® Software (San Diego, Calif.). […] Small molecules were provided in powder form and were dissolved in 100% DMSO and a final concentration of 100 μM was added to each well and assays were performed as described above. After obtaining an optimum calibration curve and enzyme concentration curve, a simplified form of the assay to test the library in a short time, was employed. One concentration of hPNKP, 50 ng, was tested and compared with the control well with no enzyme. The assay was conducted in the same way as described above with respect to oligonucleotides, buffer, controls, incubation lengths/temperatures, centrifugations and sensor addition. The fluorescence-based phosphatase assay adapted was originally developed to monitor protein phosphatase activity (34). This assay involves a fluorescent sensor molecule coated in trivalent metal cations which causes superquenching of the sensor signal when in close proximity to a dye (TAMRA) on the substrate. The sensor is brought close to TAMRA via the ionic bond formed between the terminal DNA phosphate and the trivalent metal cations on the sensor. Removal of the phosphate leads to an elevation of fluorescence because the sensor is not brought close enough to TAMRA for its signal to be quenched. […] Heat inactivated hPNKP was used as a control.

Data set [2] addresses T2, Schizosaccharomyces pombe PNKP (Schizosaccharomyces pombe, UniProt O13911).
T2 construct: made in house
T2 sequence (O13911 1-408): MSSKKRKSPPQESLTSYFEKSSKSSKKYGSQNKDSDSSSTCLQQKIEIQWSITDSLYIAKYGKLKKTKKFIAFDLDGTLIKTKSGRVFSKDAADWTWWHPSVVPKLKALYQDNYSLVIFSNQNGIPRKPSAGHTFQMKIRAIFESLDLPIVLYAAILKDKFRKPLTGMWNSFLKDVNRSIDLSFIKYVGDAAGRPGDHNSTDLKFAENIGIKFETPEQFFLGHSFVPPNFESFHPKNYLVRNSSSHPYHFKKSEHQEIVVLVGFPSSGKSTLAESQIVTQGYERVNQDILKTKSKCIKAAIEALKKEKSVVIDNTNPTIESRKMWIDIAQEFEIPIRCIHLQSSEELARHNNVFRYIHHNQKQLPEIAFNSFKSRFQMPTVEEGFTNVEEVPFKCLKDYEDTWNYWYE
In words: PiColorLock 3'-phosphatase assay, fission yeast PNKP. The settings on record: read-out: inhibition of S. pombe PNKP. The class given is biochemical. The text has this:
To determine the specificity of A12B4C3 for human PNKP phosphatase activity, a number of closely related phosphatases such as the PNKP enzymes isolated from bacteriophage T4, Schizosaccharomyces pombe and mouse, as well as aprataxin, were examined.

The nature of data set [3]: Clonogenic survival assay, compound alone. The format is cell-based. As to conditions: 1 μM, exposure up to 24 hours (data not shown). The protocol:
The effect of hPNKP inhibition by A12B4C3 on cellular survival following exposure to ionizing radiation was measured in A549, A549δPNKP and MDA-MB-231 and MDA-MB-231δPNKP cells by clonogenic assays. Cells were seeded on 60-mm tissue culture plates at various concentrations to give between about 100-1000 colonies per plate and returned to the incubator overnight to allow the cells to attach. For radiosensitization studies, the cells were incubated with or without 1 μM A12B4C3 for 2 hours before irradiation and then exposed to increasing doses of γ-radiation (^60Co Gammacell; Atomic Energy of Canada Limited, Ottawa). After irradiation, cells were incubated for a further 24 hours in the same media and then washed twice with phosphate-buffered saline (PBS) and incubated in fresh media without the inhibitor. Colonies were stained with crystal violet after 10 to 14 days and counted with an automated Colcount colony counter (Oxford Optronix, Oxford, UK).
A12B4C3 was first tested for inherent toxicity. Cytotoxicity was measured by cell proliferation assay after exposure of A549 human lung adenocarcinoma cells and MDA-MB-231 cells to different doses of the compound for 72 hours (FIG. 6A). A dose-dependent reduction in cell proliferation up to 50% at 100 μM A12B4C3 was observed. […] No effect on cell proliferation was detected after exposure to 1 μM A12B4C3.

The next data set deals with A549 cells. In words: Chemosensitization to camptothecin, clonogenic survival assay. The format is cell-based, human. As to conditions: 1 mM A12B4C3 2 hours before camptothecin, further 24 hours, wild type A549. The protocol: The effect of hPNKP inhibition by A12B4C3 on cellular survival following exposure to the topoisomerase I poison, camptothecin, was measured in A549 and A549δPNKP cells by the clonogenic survival assay (colony forming assay). Cells were seeded on 60-mm tissue culture plates at various concentrations to give between about 100-1000 colonies per plate and returned to the incubator overnight to allow the cells to attach. For chemosensitization studies, the cells were incubated with or without 1 mM A12B4C3 for 2 hours before addition of camptothecin and then exposed to increasing doses of camptothecin (Sigma). After addition of the topoisomerase I poison, cells were incubated for a further 24 hours in the same media and then washed twice with phosphate-buffered saline (PBS) and incubated in fresh media without the inhibitor. Colonies were stained with crystal violet after 10 to 14 days and counted with an automated Colcount colony counter (Oxford Optronix, Oxford, UK).
The capacity of A12B4C3 to act as a chemosensitizer was then examined. […] Colonies were stained with crystal violet after 10 to 14 days and counted with an automated Colcount colony counter (Oxford Optronix, Oxford, UK).

In data set [4] the target is human PNKP phosphatase activity (Homo sapiens, UniProt Q96T60). The data set can be described thus: PiColorlock Gold assay for 3'-phosphatase activity (release of inorganic phosphate).

With `CCCCCCCCCCC(O)C1C=CC2C(=O)N(c3ccccc3)C(=O)C2N1Nc1ccc([N+](=O)[O-])cc1` (stereo not shown) [Compound A12B4C3, 2-(1-hydroxyundecyl)-1-(4-nitrophenylamino)-6-phenyl-6,7a-dihydro-1H-pyrrolo[3,4-b]pyridine-5,7(2H,4aH)-dione], the “inhibition of hPNKP phosphatase activity (substrate dephosphorylation) in the screening assay” value in data set [1] is given as “significant inhibition; also recorded: marked inhibition”. Moreover, the inhibition (usually how much of the control response was suppressed) at 50 µM is about 20% in data set [2] and about 85% in data set [4] (read-out: inhibition of human PNKP). The “cytotoxicity by clonogenic survival assay” value in data set [3] is “lack of cytotoxicity”. In addition, the chemosensitization to camptothecin entry in the data set on A549 cells is recorded as “effectively sensitized”. The “concentration giving near maximal inhibition” value in data set [4] (PiColorLock Gold) was found to be 5 µM. Further, the “potency rank among the five PNKP inhibitors” value in data set [4] (PiColorLock Gold, FIG. 4B) was “most potent”.
